Data reported in patent US20140234318A1, “TUMOR SPECIFIC OLIGOSACCHARIDE EPITOPES AND USE THEREOF” (GLYKOS FINLAND OY, priority 2002, published 2014).

Columns and labels:
[1] = system: IgM antibodies against specific carbohydrate epitopes in serum of cancer patients; assay: ELISA of serum IgM antibodies binding to synthetic glycoconjugates; design: species or system human
From the text: (§1) A group of four people with various stages of diagnosed cancer of the gastrointestinal tract or the ovary, was studied by analyzing serum samples for their concentrations of IgG and IgM antibodies against specific carbohydrate epitopes. The assay consisted of binding of specific antibodies from serum to synthetic glycoconjugates, washing, and then detecting the specifically bound antibody levels in ELISA with enzyme-labelled anti-human IgG or anti-human IgM secondary antibodies and quantitation of specific reaction products.

[2] = system: IgG antibodies against specific carbohydrate epitopes in serum of cancer patients; assay: ELISA of serum IgG antibodies binding to synthetic glycoconjugates; design: species or system human; conditions: for serum antibody levels against the epitope, summary in words: IgG and IgM, group of four cancer patients
From the text: as §1

[3] = system: endogenous galactosyltransferase activity of human serum; assay: Activation of endogenous galactosyltransferase activity of human serum; type: biochemical
Procedure: Fresh human blood sample was collected from blood group B-individual (5 ml). After clotting for 30 min it was centrifuged at +4° C., 2000 rpm for 25 minutes, and the serum was collected for experiments (2 ml, stored on ice).
Reactions were performed with 50 nmol of acceptor saccharide (GlcNAcβ1-3Galβ1-4GlcNAc, from enzymatic synthesis, purified by ion exchange and gel filtration, characterized by NMR and mass spectrometry), 5 nmol UDP-[^14C]Gal (mixture of nonlabelled and radioactive, radioactivity was 100 000 cpm) and 20 μl of fresh human serum (total volume was 20 μl). Reaction conditions were varied by adding cations and bovine milk β1,4-galactosyltransferase (β1,4GalT).

Helicobacter pylori [4] = conditions: cited from earlier work
Helicobacter pylori [5] = assay: Receptor activity of oligosaccharides for Helicobacter pylori; type: binding; conditions: relative to the non-galactosylated receptor
Procedure: The structure is changed to 10-fold weaker receptor structure Galβ4GlcNAcβ3Galβ4GlcNAcβ3Galβ4Glc by incubating it with UDP-Gal and β4-galactosyltransferase from bovine milk. b) The oligosaccharide receptor GlcNAcβ3Galβ4GlcNAcβ3Galβ4Glc is incubated with GDP-Fuc and soluble human fucosyltransferase VI corresponding to major the fucosyltransferase from human milk. MALDI-TOF mass spectrometric analysis reveled a major peak corresponding to GlcNAcβ3Galβ4(Fucα3)GlcNAcβ3Galβ4Glc, the structure is confirmed by NMR-spectroscopy. c) Erythrocytes from a patient suffering from glycosylation deficiency causing high levels of terminal GlcNAc-structures including GlcNAcβ3Galβ4GlcβCer are incubated with radiolabeled UDP-Gal and βgalactosyltransferase. Transfer of labeled galactose on the cell surface is observed. The galactosylation of the cells reduces the reactivity of the cells with anti-GlcNAc-antibodies.

[6] = system: terminal GlcNAc residues in lung adenocarcinoma tissue sections; assay: Labeling of terminal GlcNAc residues in tissue sections with UDP-GalN-biotin; design: species or system human; conditions: streptavin-FITC, fluorescence microscopy
Procedure: In a typical procedure, an oligosaccharide acceptor such as GlcNAcβ1-3Galβ1-4GlcNAcβ1-3Galβ1-4Glc, or deparaffinised formalin-fixed paraffin-embedded tissue sections, are incubated at + 37° C. with a reaction mixture containing 10 mM UDP-GalN-biotin, 160 U/l enzyme, 100 mM Tris-HCl, and 20 mM MnCl2. After washing, the biotin groups are visualised by standard methods in the art, using streptavidin or avidin coupled reagents, for example streptavidin-FITC.

[7] = system: recombinant β1,4-galactosyltransferase similar to the enzyme described in (Ramakrishnan and Qasba, 2002); assay: Transfer of modified galactosamine from UDP-GalN conjugates to terminal GlcNAc acceptor by modified galactosyltransferase; type: biochemical, bovine; conditions: MALDI-TOF MS of the product

Row | Compound | antibody signal intensity from which the assay background has been subtracted ([1]; Patient 1, IgM) | antibody signal intensity from which the assay background has been subtracted ([1]; Patient 2, IgM) | antibody signal intensity from which the assay background has been subtracted ([1]; Patient 3, IgM) | antibody signal intensity from which the assay background has been subtracted ([1]; Patient 4, IgM) | antibody signal intensity from which the assay background has been subtracted ([2]; Patient 1, IgG) | antibody signal intensity from which the assay background has been subtracted ([2]; Patient 2, IgG) | antibody signal intensity from which the assay background has been subtracted ([2]; Patient 3, IgG) | antibody signal intensity from which the assay background has been subtracted ([2]; Patient 4, IgG) | serum antibody levels against the epitope, summary in words [2] | also measured
1 | GlcNAcβ1-6(Galβ1-3)GalNAcα-O—CH2—R [Saccharide 3] | 0.091 | 0.008 | 0.068 | 0.042 | 0.039 | 0.078 | 0 | 0 | elevated in the whole patient group | 
2 | [Cl][Mn][Cl] [MnCl2] |  |  |  |  |  |  |  |  |  | Product ([3]; 0.2 mM MnCl2, no external β1,4GalT): 457 cpm; Product ([3]; 1 mM MnCl2, no external β1,4GalT): 1073 cpm; Product ([3]; 5 mM MnCl2, no external β1,4GalT): 566 cpm
3 | CC(=O)N[C@H]1[C@H](O[C@H]2[C@@H](O)[C@@H](CO)O[C@@H](O[C@H]3[C@H](O)[C@@H](O)C(O)O[C@@H]3CO)[C@@H]2O)O[C@H](CO)[C@@H](O[C@@H]2O[C@H](CO)[C@H](O)[C@@H](O[C@@H]3O[C@H](CO)[C@@H](O)[C@H](O)[C@H]3NC(C)=O)[C@H]2O)[C@@H]1O (stereo partly shown) [GlcNAcβ3Galβ4GlcNAcβ3Galβ4Glc] |  |  |  |  |  |  |  |  |  | receptor for Helicobacter pylori (Helicobacter pylori [4]): receptor for the gastric pathogen Helicobacter pylori
4 | CC(=O)N[C@H]1[C@H](O[C@H]2[C@@H](O)[C@@H](CO)O[C@@H](O[C@H]3[C@H](O)[C@@H](NC(C)=O)[C@H](O[C@H]4[C@@H](O)[C@@H](CO)O[C@@H](O[C@H]5[C@H](O)[C@@H](O)C(O)O[C@@H]5CO)[C@@H]4O)O[C@@H]3CO)[C@@H]2O)O[C@H](CO)[C@@H](O[C@@H]2O[C@H](CO)[C@H](O)[C@H](O)[C@H]2O)[C@@H]1O (stereo partly shown) [Galβ4GlcNAcβ3Galβ4GlcNAcβ3Galβ4Glc] |  |  |  |  |  |  |  |  |  | receptor strength for Helicobacter pylori, weaker than GlcNAcβ3Galβ4GlcNAcβ3Galβ4Glc (Helicobacter pylori [5]): 10 fold
5 | GlcNAcβ1-2Manα1-6(GlcNAcβ1-2Manα1-3)Manβ1-4GlcNAcβ1-4(Fucα1-6)GlcNAcβ-N-Asn-R [Saccharide 1] | 0 | 0 | 0.01 | 0 | 0 | 0 | 0.006 | 0 | elevated in one patient | 
6 | uridine 5′-diphospho-N-(6-biotinamidohexanoyl)galactosamine [UDP-GalN-biotin] |  |  |  |  |  |  |  |  |  | labeling of cancer cells in tissue sections [6]: cancer cells could be labeled; transfer of the modified galactosamine residue to a terminal GlcNAc acceptor [7]: reacted

Second part, led by results:

Row | antibody signal intensity from which the assay background has been subtracted ([1]; Patient 1, IgM) | antibody signal intensity from which the assay background has been subtracted ([1]; Patient 2, IgM) | antibody signal intensity from which the assay background has been subtracted ([1]; Patient 3, IgM) | antibody signal intensity from which the assay background has been subtracted ([1]; Patient 4, IgM) | antibody signal intensity from which the assay background has been subtracted ([2]; Patient 1, IgG) | antibody signal intensity from which the assay background has been subtracted ([2]; Patient 2, IgG) | antibody signal intensity from which the assay background has been subtracted ([2]; Patient 3, IgG) | antibody signal intensity from which the assay background has been subtracted ([2]; Patient 4, IgG) | Compound | serum antibody levels against the epitope, summary in words [2] | also measured
7 | 0.125 | 0.041 | 0.011 | 0.056 | 0.017 | 0.094 | 0 | 0 | GlcNAcβ1-3GalNAcα-O—CH2—R [Saccharide 5] | identical pattern of antibody type response | 
8 | 0.159 | 0.029 | 0.122 | 0 | 0 | 0.082 | 0.013 | 0 | GlcNAcβ-O—CH2—R [Saccharide 4] | Two patients showed elevated serum levels of mainly IgM and one patient mainly IgG | 
